# Target: CREBBP (Homo sapiens (Human), UniProt Q92793)
# Assay: In vitro enzyme inhibition assay - CREBBP inhibition (AlphaScreen, biotinylated H4-tetraacetyl peptide)
# Assay type: binding
# Conditions: Table 28; AlphaScreen, H4-tetraacetyl peptide
# Method in brief: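 His-tagged CREBBP expressed in E. coli (50 nM final) incubated with biotinylated H4K5/8/12/16(Ac) peptide (20 nM final) in HEPES pH 7.3 buffer, 0.4% DMSO, 20 min at room temperature.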
# Sequence of CREBBP (Q92793 1081-1197): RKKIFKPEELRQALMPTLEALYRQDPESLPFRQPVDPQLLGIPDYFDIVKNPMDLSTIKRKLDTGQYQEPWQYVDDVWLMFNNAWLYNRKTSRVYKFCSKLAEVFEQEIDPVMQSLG
row,IC50 [nM],Compound
1,< 500,"CCCS(=O)(=O)Nc1nc(Oc2c(C)cccc2C)nc(-c2cc(C)c(=O)n(C)c2)n1 [Example 154, Propane-1-sulfonic acid [4-(1,5-dimethyl-6-oxo-1,6-dihydro-pyridin-3-yl)-6-(2,6-dimethyl-phenoxy)-[1,3,5]triazin-2-yl]-amide]"
2,< 500,"Cc1cccc(C)c1Oc1nc(NS(=O)(=O)C(C)C)nc(-c2cc(C)c(=O)n(C)c2)n1 [Example 155, Propane-2-sulfonic acid [4-(1,5-dimethyl-6-oxo-1,6-dihydro-pyridin-3-yl)-6-(2,6-dimethyl-phenoxy)-[1,3,5]triazin-2-yl]-amide]"
3,500 to 5000,"CCCS(=O)(=O)Nc1cc(-c2cc(C)c(=O)n(C)c2)nc(-c2ccccc2)n1 [Example 156, N-(6-(1,5-dimethyl-6-oxo-1,6-dihydropyridin-3-yl)-2-phenylpyrimidin-4-yl)propane-1-sulfonamide]"
4,< 500,"CCS(=O)(=O)Nc1nc(Oc2c(C)cccc2C)nc(-c2cc(C)c(=O)n(C)c2)c1C [Example 160, Ethanesulfonic acid [6-(1,5-dimethyl-6-oxo-1,6-dihydro-pyridin-3-yl)-2-(2,6-dimethyl-phenoxy)-5-methyl-pyrimidin-4-yl]-amide]"
5,< 500,"CCCS(=O)(=O)Nc1nc(Oc2c(C)cccc2F)nc(-c2cc(C)c(=O)n(C)c2)c1C [Example 161, Propane-1-sulfonic acid [6-(1,5-dimethyl-6-oxo-1,6-dihydro-pyridin-3-yl)-2-(2-fluoro-6-methyl-phenoxy)-5-methyl-pyrimidin-4-yl]-amide]"
6,< 500,"Cc1cccc(C)c1Oc1nc(NS(=O)(=O)C(C)C)c(C)c(-c2cc(C)c(=O)n(C)c2)n1 [Example 163, Propane-2-sulfonic acid [6-(1,5-dimethyl-6-oxo-1,6-dihydro-pyridin-3-yl)-2-(2,6-dimethyl-phenoxy)-5-methyl-pyrimidin-4-yl]-amide]"
7,< 500,"Cc1c(NS(=O)(=O)C(C)C)nc(Oc2ccc(F)cc2F)nc1-c1cc(C)c(=O)n(C)c1 [Example 165, Propane-2-sulfonic acid [2-(2,4-difluoro-phenoxy)-6-(1,5-dimethyl-6-oxo-1,6-dihydro-pyridin-3-yl)-5-methyl-pyrimidin-4-yl]-amide]"
8,< 500,"CCC(F)(F)S(=O)(=O)Nc1cc(-c2ccc(=O)n(C)c2)nc(Oc2c(C)cccc2F)n1 [Example 166, 1,1-Difluoro-propane-1-sulfonic acid [2-(2-fluoro-6-methyl-phenoxy)-6-(1-methyl-6-oxo-1,6-dihydro-pyridin-3-yl)-pyrimidin-4-yl]-amide]"
9,< 500,"CCC(F)(F)S(=O)(=O)Nc1cc(-c2cc(C)c(=O)n(C)c2)nc(Oc2c(C)cccc2F)n1 [Example 167, 1,1-Difluoro-propane-1-sulfonic acid [6-(1,5-dimethyl-6-oxo-1,6-dihydro-pyridin-3-yl)-2-(2-fluoro-6-methyl-phenoxy)-pyrimidin-4-yl]-amide]"
10,< 500,"CCC(F)(F)S(=O)(=O)Nc1cc(-c2ccc(=O)n(C)c2)nc(Oc2c(C)cccc2Cl)n1 [Example 170, 1,1-Difluoro-propane-1-sulfonic acid [2-(2-chloro-6-methyl-phenoxy)-6-(1-methyl-6-oxo-1,6-dihydro-pyridin-3-yl)-pyrimidin-4-yl]-amide]"
11,< 500,"CCS(=O)(=O)Nc1nc(Oc2c(C)cccc2F)nc(-c2cc(C)c(=O)n(C)c2)n1 [Example 171, Ethanesulfonic acid [4-(1,5-dimethyl-6-oxo-1,6-dihydro-pyridin-3-yl)-6-(2-fluoro-6-methyl-phenoxy)-[1,3,5]triazin-2-yl]-amide]"
12,< 500,"Cc1cccc(F)c1Oc1nc(NS(=O)(=O)C(C)C)nc(-c2cc(C)c(=O)n(C)c2)n1 [Example 172, Propane-2-sulfonic acid [4-(1,5-dimethyl-6-oxo-1,6-dihydro-pyridin-3-yl)-6-(2-fluoro-6-methyl-phenoxy)-[1,3,5]triazin-2-yl]-amide]"
13,< 500,"CCCS(=O)(=O)Nc1nc(Oc2c(C)cccc2F)nc(-c2cc(C)c(=O)n(C)c2)n1 [Example 173, Propane-1-sulfonic acid [4-(1,5-dimethyl-6-oxo-1,6-dihydro-pyridin-3-yl)-6-(2-fluoro-6-methyl-phenoxy)-[1,3,5]triazin-2-yl]-amide]"

# More lines, now with the values behind:
row,Compound,IC50 [nM]
1,"CCCCS(=O)(=O)Nc1cc(-c2c[nH]c(=O)c(C)c2)nc(Oc2c(C)cccc2Cl)n1 [Example 157, Butane-1-sulfonic acid [2-(2-chloro-6-methyl-phenoxy)-6-(5-methyl-6-oxo-1,6-dihydro-pyridin-3-yl)-pyrimidin-4-yl]-amide]",< 500
2,"Cc1cccc(Cl)c1Oc1nc(NS(=O)(=O)C(C)C)cc(-c2c[nH]c(=O)c(C)c2)n1 [Example 158, Propane-2-sulfonic acid [2-(2-chloro-6-methyl-phenoxy)-6-(5-methyl-6-oxo-1,6-dihydro-pyridin-3-yl)-pyrimidin-4-yl]-amide]",< 500
3,"CCS(=O)(=O)Nc1nc(Oc2c(C)cccc2F)nc(-c2cc(C)c(=O)n(C)c2)c1C [Example 159, Ethane-2-sulfonic acid [6-(1,5-dimethyl-6-oxo-1,6-dihydro-pyridin-3-yl)-2-(2-fluoro-6-methyl-phenoxy)-5-methyl-pyrimidin-4-yl]-amide]",< 500
4,"Cc1cccc(F)c1Oc1nc(NS(=O)(=O)C(C)C)c(C)c(-c2cc(C)c(=O)n(C)c2)n1 [Example 162, Propane-2-sulfonic acid [6-(1,5-dimethyl-6-oxo-1,6-dihydro-pyridin-3-yl)-2-(2-fluoro-6-methyl-phenoxy)-5-methyl-pyrimidin-4-yl]-amide]",< 500
5,"CCCS(=O)(=O)Nc1nc(Oc2c(C)cccc2C)nc(-c2cc(C)c(=O)n(C)c2)c1C [Example 164, Propane-1-sulfonic acid [6-(1,5-dimethyl-6-oxo-1,6-dihydro-pyridin-3-yl)-2-(2,6-dimethyl-phenoxy)-5-methyl-pyrimidin-4-yl]-amide]",< 500
6,"CCC(F)S(=O)(=O)Nc1cc(-c2ccc(=O)n(C)c2)nc(Oc2c(C)cccc2F)n1 (stereo not shown) [Example 168, 1-Fluoro-propane-1-sulfonic acid [2-(2-fluoro-6-methyl-phenoxy)-6-(1-methyl-6-oxo-1,6-dihydro-pyridin-3-yl)-pyrimidin-4-yl]-amide]",< 500
7,"CCC(F)S(=O)(=O)Nc1cc(-c2cc(C)c(=O)n(C)c2)nc(Oc2c(C)cccc2F)n1 (stereo not shown) [Example 169, 1-Fluoro-propane-1-sulfonic acid [6-(1,5-dimethyl-6-oxo-1,6-dihydro-pyridin-3-yl)-2-(2-fluoro-6-methyl-phenoxy)-pyrimidin-4-yl]-amide]",< 500
8,"CCCCS(=O)(=O)Nc1nc(Oc2c(C)cccc2F)nc(-c2cc(C)c(=O)n(C)c2)n1 [Example 174, Butane-1-sulfonic acid [4-(1,5-dimethyl-6-oxo-1,6-dihydro-pyridin-3-yl)-6-(2-fluoro-6-methyl-phenoxy)-[1,3,5]triazin-2-]-amide]",< 500
9,"CCS(=O)(=O)Nc1nc(Oc2c(C)cccc2F)nc(-c2ccc(=O)n(C)c2)n1 [Example 175, Ethanesulfonic acid [4-(2-fluoro-6-methyl-phenxoy)-6-(1-methyl-6-oxo-1,6-dihydro-pyridin-3-yl)-[1,3,5]triazin-2-yl]-amide]",< 500

# From patent US10202360B2 (CELGENE QUANTICEL RESEARCH, INC., priority 2016, dated 2019)
